Assay results as given in patent publication US5017618A, “Labile derivatives of ketone analogs of 3-substituted-1-alkylamino-2-propanols and their use as beta-adrenergic blockers” (priority 1989, dated 1991).
Where a name gives a salt, the structure may show the parent alone. One block for each compound: values may come before it.

Columns and labels:
[1] = test system: isoprenaline-induced tachycardia; assay: Effect on isoprenaline-induced tachycardia in rats (β-adrenergic antagonist activity); type: in vivo, rat (male Sprague-Dawley); conditions: for β-adrenergic antagonist activity against isoprenaline-tachycardia: rats, 6 mg/kg i.v., isoprenaline 50 μg/kg s.c., FIG. 1; for β-antagonist activity: dose levels used
Method: (§1) Groups of seven male Sprague-Dawley rats weighing 150-250 g were used. Each animal was anesthetized with sodium pentobarbital (50 mg/kg) and the jugular vein was cannulated with PE50 tubing. This cannula was subcutaneously threaded around the neck and exteriorized dorsally. The cannula was filled with heparin solution ([…]) and sealed with a solid 22-gauge stylet. Animals were housed in individual stainless steel cages and at least 24 hours were allowed for recovery from the surgery. Food and water were provided ad libitum. On the day of the experiment, the heart rate of each rat was monitored with a plethsmograph and the data recorded on a Physioscribe II recorder. One hour was allowed as an equilibration period before any drugs were administered. Drugs were dissolved in normal saline as 0.3% solution and were administered intravenously at a dose of 6 mg/kg. The resting heart rate was then recorded after 1, 3, 5, 10 and 15 minutes following i.v. injection. […] A control group of seven animals was intravenously administered saline solution and was treated exactly in the same manner as the drug-treated groups. The significance of the difference between the effect of saline solution and the drugs under investigation on the resting heart rate and on isoprenaline tachycardia was analyzed using the student's "t" test. Values are given as mean ±S.E. of the mean. […] (.) carteolol HCl, 1c; .circle. propranolone ketoxime HCl, 6a; (.gradient.) timolone ketoxime oxalate, 6b; (Δ) N-isopropyl timolone ketoxime HCl, 6d; carteolone oxime HCl, 6c; and (---) saline solution. […] Drugs were administered to groups of 5 rats using a stomach tube and the heart rate was recorded for 1 hour. […] A control group of 5 rats was treated exactly in the same manner after the oral administration of the appropriate volume of saline solution.

Hygroscopicity = type: physicochemical; conditions: crystals
Method: In a 50 mL round-bottomed flask was placed a solution of oxalic acid (0.20 g, 2.22 mmole) in ether (10 mL). To this solution was added a solution of 5b (0.43 g, 1.3 mmole) in ether. The mixture was stirred at room temperature for 1 hour. The white non-hygroscopic crystals were filtered and dried in vacuo. Yield 0.53 g (97%), m.p. 165°-166° (dec.). NMR (CDCl3) δ 5.3 (s, 2H), 3.9-3.7 (m, 4H), 3.6-3.4 (m, 6H), 1.1 (s, 9H). Anal. (C18 H25 O7 N5), C,H,N.

[2] = test system: Intraocular Pressure (IOP) of Rabbits; assay: Effect on the Intraocular Pressure (IOP) of Rabbits; type: in vivo, rabbit (male New Zealand albino); conditions: for ocular hypotensive activity (in words): topical, dose levels used
Method: The animals were kept in individual cages with free access to food and water. Intraocular pressure was measured using a Digilab model 30R pneumatonometer. The pneumatonometer readings were checked at least twice a day using the Digilab calibration verifier. All measurements were obtained from unrestrained, unanesthetized rabbits. One drop of 0.5% propacaine (Ophthetic-Allergen Pharmaceuticals, Inc.) diluted 1:2 with saline was instilled in each eye immediately prior to IOP measurement. Drugs were administered as 1 or 2.5% solution in buffer pH 7.4 or in saline in both eyes of a group of at least four rabbits. Another group of at least three rabbits served as control and was administered the carrier only. […] Values are given as means ± standard error (S.E.) of the mean. The significance of the change was determined using the student's t-test.

[3] = test system: resting heart rate of rats; assay: Effect on resting heart rate in rats; type: in vivo, rat (male Sprague-Dawley); conditions: 6 mg/kg i.v. (Example 6)
Method: as §1

[4] = test system: rabbit cornea (intraocular enzymes); type: in vivo; conditions: topical, 2% (w/v) aqueous solution
Method: The tissue was homogenized in an alkaline buffer (pH 10.0) to give 10% (w/v) homogenate, and extracted twice with equal volumes of methylene chloride/diethyl ether mixture (1:4, v/v) by shaking for 15 minutes. The organic layer was separated, then re-extractedwith an equal volume of aqueous 0.1M hydrochloric acid solution. The aqueous phase was made alkaline (pH 10.0) and extracted with methylene chloride/diethyl ether, the organic layer was transferred to a deactivated glass vial, and the solvent was evaporated at reduced pressure under nitrogen stream. The residue was dissolved in 0.01M hydrochloric acid solution and analyzed by high-performance liquid chromatography (HPLC). A Supelcosil LC-8-DB analytical column (7.5 cm×4.6 mm i.d., 3 μm particle size) and mobile phase (1.5 mL/min flow rate) consisting of 30% acetonitrile in an aqueous buffer solution of 0.02M monobasic potassium phosphate (adjusted to pH 3.0 with phosphoric acid) and 0.01 (v/v) triethylamine. UV detection at 280 nm was applied. […] The same experiment was carried out by administering 1-(isopropylamino)-3-(2-allylphenoxy)-2-propanone oxime hydrochloride salt in 2% (w/v) aqueous solution. […]

[5] = test system: ocular tissues of rabbits; assay: In vivo distribution-metabolism in ocular tissues of rabbits; conditions: rabbit, in vivo
Method: Adult male New Zealand albino rabbits weighing 2.5-3.5 kg were used. Standard doses of 100 μl of 1% solution of the drugs in saline solution were administered topically to both eyes of each rabbit. After appropriate time intervals (30, 60 and 120 minutes), the animals were sacrificed. Aqueous humor was obtained by making a single puncture at the limbus using a 25 g×5/8" needle attached to 1 cm^3 syringe. Then the cornea and the iris-ciliary body were isolated. The tissues were pooled and homogenized using a Tekmar SDT tissuemizer in ice cold perchloric acid (0.05M) which contained 0.05% sodium metabisulfite as antioxidant. Samples were then rehomogenized in CH3 OH to prepare 10% homogenates, transferred to micro-filters and centrifuged for 20 minutes at 10000 r/minute to precipitate proteins. Aqueous humor was analyzed as such without any further dilution. Aliquots of 5-20 μl of the 10% tissue homogenate samples were analyzed by HPLC.

[6] = propranolol enantiomers; cited from earlier work
[7] = Table 3, 1% solution, time zero

hygroscopicity (Hygroscopicity): non-hygroscopic
SMILES: CC(C)(C)NCC(COc1nsnc1N1CCOCC1)=NO.O=C(O)C(=O)O [Timolone oxime oxalate 6b, 1-(tert-Butylamino)-3-[(4-morpholino-1,2,5-thiadiazol-3-yl)oxy]-2-propanoneoxime oxalate]
β-adrenergic antagonist activity against isoprenaline-tachycardia [1]: most effective
% change after treatment (IOP) ([2]; Table 3, 1% solution, 30 min.): -2.43%
IOP, drug-treated ([2]; Table 3, 1% solution, 30 min.): 27.75 ± 0.68 mm/Hg
% change after treatment (IOP) ([2]; Table 3, 1% solution, 1 hr.): -14.56%
IOP, drug-treated ([2]; Table 3, 1% solution, 1 hr.): 24.30 ± 0.63 mm/Hg
% change after treatment (IOP) ([2]; Table 3, 1% solution, 2 hr.): -15.61%
IOP, drug-treated ([2]; Table 3, 1% solution, 2 hr.): 24.00 ± 0.44 mm/Hg
% change after treatment (IOP) ([2]; Table 3, 1% solution, 3 hr.): -11.64%
IOP, drug-treated ([2]; Table 3, 1% solution, 3 hr.): 25.13 ± 0.96 mm/Hg
IOP, drug-treated ([2]; Table 3, 1% solution, 4 hr.): 26.93 ± 0.48 mm/Hg
% change after treatment (IOP) ([2]; Table 3, 1% solution, 5 hr.): -5.49%
IOP, drug-treated ([2]; Table 3, 1% solution, 5 hr.): 26.88 ± 0.52 mm/Hg
% change after treatment (IOP) ([2]; Table 3, 1% solution, 6 hr.): +1.20%
IOP, drug-treated ([2]; Table 3, 1% solution, 6 hr.): 28.78 ± 0.91 mm/Hg
% change after treatment (IOP) ([2]; Table 3, 1% solution, 8 hr.): -7.42%
IOP, drug-treated ([2]; Table 3, 1% solution, 8 hr.): 26.33 ± 0.40 mm/Hg
% change after treatment (IOP) [2, 7]: 0.00%
IOP, drug-treated [2, 7]: 28.44 ± 0.63 mm/Hg
ocular hypotensive activity compared with parent β-blocker ([2]; same dose levels, rabbits): faster in its onset and shorter in its duration than timolol 1b itself
ocular hypotensive activity (in words) ([2]; rabbits): significant ocular hypotensive activity
activity on resting heart rate (negative chronotropic action) [3]: highest activity

SMILES: C=CCc1ccccc1OCC(CNC(C)C)=NO.Cl [1-(isopropylamino)-3-(2-allylphenoxy)-2-propanone oxime hydrochloride]
metabolites identified in cornea [4]: showed the presence of the two oxime isomers, the corresponding ketone 1-(isopropylamino)-3-(2-allylphenoxy)-2-propanone, and the β-adrenergic blocker 1-(isopropylamino)-3-(2-allylphenoxy)-2-propanol(alprenolol)

SMILES: CC(C)(C)NCC(O)COc1cccc2c1CCC(=O)N2 (centres unmarked) [carteolol]
detection of parent β-adrenergic antagonist in eye compartments [5]: could not be found in any of the eye compartments

SMILES: CC(C)NC[C@H](O)COc1cccc2ccccc12 [S-(-)-isomer]
potency relative to R-(+)-enantiomer [6]: about 100 times

SMILES: CC(C)NC[C@@H](O)COc1cccc2ccccc12 [R-(+)-enantiomer]
metabolism relative to S-form [6]: metabolized faster than the S-form

SMILES: CC(C)(C)NCC(O)COc1cccc2c1CCC(=O)N2 (centres unmarked) [Compound 1c, reference compound]
activity on resting heart rate (negative chronotropic action) [3]: lowest activity on the heart rate of rats

SMILES: CC(C)(C)NCC(O)COc1nsnc1N1CCOCC1 (centres unmarked) [Timolol maleate 1b, reference compound]
% change after treatment (IOP) ([2]; Table 3, 1% solution, 30 min.): -10.93%
IOP, drug-treated ([2]; Table 3, 1% solution, 30 min.): 26.00 ± 1.23 mm/Hg
% change after treatment (IOP) ([2]; Table 3, 1% solution, 1 hr.): 6.65%
IOP, drug-treated ([2]; Table 3, 1% solution, 1 hr.): 27.25 ± 1.12 mm/Hg
% change after treatment (IOP) ([2]; Table 3, 1% solution, 2 hr.): 6.78%
IOP, drug-treated ([2]; Table 3, 1% solution, 2 hr.): 27.21 ± 0.58 mm/Hg
% change after treatment (IOP) ([2]; Table 3, 1% solution, 3 hr.): 14.35%
IOP, drug-treated ([2]; Table 3, 1% solution, 3 hr.): 25.00 ± 0.87 mm/Hg
% change after treatment (IOP) ([2]; Table 3, 1% solution, 4 hr.): 14.77%
IOP, drug-treated ([2]; Table 3, 1% solution, 4 hr.): 24.88 ± 1.00 mm/Hg
% change after treatment (IOP) ([2]; Table 3, 1% solution, 5 hr.): 16.92%
IOP, drug-treated ([2]; Table 3, 1% solution, 5 hr.): 24.25 ± 1.18 mm/Hg
% change after treatment (IOP) ([2]; Table 3, 1% solution, 6 hr.): 12.37%
IOP, drug-treated ([2]; Table 3, 1% solution, 6 hr.): 25.58 ± 0.85 mm/Hg
% change after treatment (IOP) ([2]; Table 3, 1% solution, 8 hr.): 9.80%
IOP, drug-treated ([2]; Table 3, 1% solution, 8 hr.): 26.33 ± 0.40 mm/Hg
% change after treatment (IOP) [2, 7]: 0.00%
IOP, drug-treated [2, 7]: 29.19 ± 0.78 mm/Hg

SMILES: CC(C)NCC(O)COc1cccc2ccccc12 (centres unmarked) [Propranolol HCl 1a, reference compound]
% change after treatment (IOP) ([2]; 1% solution, 30 min.): -9.10%
IOP, treated ([2]; 1% solution, 30 min.): 28.0 ± 0.56 mm/Hg
% change after treatment (IOP) ([2]; 1% solution, 60 min.): -10.39%
IOP, treated ([2]; 1% solution, 60 min.): 27.6 ± 0.62 mm/Hg
% change after treatment (IOP) ([2]; 1% solution, 2 hrs.): -5.52%
IOP, treated ([2]; 1% solution, 2 hrs.): 29.1 ± 0.38 mm/Hg
% change after treatment (IOP) ([2]; 1% solution, 3 hrs.): -11.04%
IOP, treated ([2]; 1% solution, 3 hrs.): 27.4 ± 0.54 mm/Hg
% change after treatment (IOP) ([2]; 1% solution, 4 hrs.): -8.44%
IOP, treated ([2]; 1% solution, 4 hrs.): 28.2 ± 0.48 mm/Hg
% change after treatment (IOP) ([2]; 1% solution, 6 hrs.): -5.84%
IOP, treated ([2]; 1% solution, 6 hrs.): 29.0 ± 0.45 mm/Hg
% change after treatment (IOP) ([2]; 1% solution, 8 hrs.): -1.95%
IOP, treated ([2]; 1% solution, 8 hrs.): 30.2 ± 0.43 mm/Hg
% change after treatment (IOP) ([2]; 1% solution, time zero): 0.00%
IOP, treated ([2]; 1% solution, time zero): 30.8 ± 0.40 mm/Hg
% change after treatment (IOP) ([2]; 2.5% solution, 30 min.): +8.66%
IOP, treated ([2]; 2.5% solution, 30 min.): 27.6 ± 0.56 mm/Hg
% change after treatment (IOP) ([2]; 2.5% solution, 60 min.): +9.84%
IOP, treated ([2]; 2.5% solution, 60 min.): 27.9 ± 0.60 mm/Hg
% change after treatment (IOP) ([2]; 2.5% solution, 2 hrs.): +1.18%
IOP, treated ([2]; 2.5% solution, 2 hrs.): 25.7 ± 0.55 mm/Hg
% change after treatment (IOP) ([2]; 2.5% solution, 3 hrs.): +1.18%
IOP, treated ([2]; 2.5% solution, 3 hrs.): 25.7 ± 0.39 mm/Hg
% change after treatment (IOP) ([2]; 2.5% solution, 4 hrs.): +0.79%
IOP, treated ([2]; 2.5% solution, 4 hrs.): 25.6 ± 0.46 mm/Hg
% change after treatment (IOP) ([2]; 2.5% solution, 6 hrs.): 0.00%
IOP, treated ([2]; 2.5% solution, 6 hrs.): 25.4 ± 0.54 mm/Hg
% change after treatment (IOP) ([2]; 2.5% solution, 8 hrs.): -0.79%
IOP, treated ([2]; 2.5% solution, 8 hrs.): 25.2 ± 0.68 mm/Hg
% change after treatment (IOP) ([2]; 2.5% solution, time zero): 0.00%
IOP, treated ([2]; 2.5% solution, time zero): 25.4 ± 0.56 mm/Hg

SMILES: CC(C)(C)NCC(COc1cccc2c1CCC(=O)N2)=NO [Compound 6c, 5-[3-(tert-Butylaminno)-2-(hydroxyimino)propoxy]-3,4-dihydrocarbostyril Hydrochloride]
β-antagonist activity [1]: some β-antagonist activity
β-adrenergic antagonist activity against isoprenaline-tachycardia [1]: least active
ocular hypotensive activity (in words) ([2]; rabbits): low activity at the dose levels used
activity on resting heart rate (negative chronotropic action) [3]: less active

SMILES: CC(C)NCC(COc1nsnc1N1CCOCC1)=NO.Cl [Compound 6d, 1-(Isopropylamino)-3-[(4-morpholino-1,2,5-thiadiazol-3-yl)oxy]-2-propanone oxime Hydrochloride]
β-antagonist activity [1]: some β-antagonist activity
β-adrenergic antagonist activity against isoprenaline-tachycardia [1]: least active
activity ([2]; selected dosage level): inactive at the selected dosage level
ocular hypotensive activity (in words) ([2]; rabbits): low activity at the dose levels used
activity on resting heart rate (negative chronotropic action) [3]: less active
